# In PubChem BioAssay AID2060614 (Molecular Pharmacology Branch, DTP, NCI, 2025):
# Tested on: 598228-144-R-J1-PDC complex spheroids, viability
# Assay: Anticancer human tumor 598228-144-R-J1-PDC patient-derived serous endometrial adenocarcinoma cell line growth inhibition [CLK]
# Conditions: for IC50: curve of first compound; for viability, T/C: stronger effect = lower value
# Procedure, shortened: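 Patient-derived tumor cells grown as complex spheroids with HUVEC endothelial cells and mesenchymal stem cells, treated with drug combinations. Concentrations descend in half-log steps from near clinical Cmax, or from 10 microM if Cmax unknown.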
# [1] = second compound 0.0316 µM, first compound 0.0316 µM
# [2] = second compound 0.0316 µM, first compound 0.1 µM
# [3] = second compound 0.1 µM, first compound 0.0316 µM
# [4] = second compound 0.1 µM, first compound 0.1 µM
# [5] = second compound 0.316 µM, first compound 0.0316 µM
# [6] = second compound 0.316 µM, first compound 0.1 µM
# [7] = second compound 1 µM, first compound 0.0316 µM
# [8] = second compound 1 µM, first compound 0.1 µM
# [9] = second compound 3.16 µM, first compound 0.0316 µM
# [10] = second compound 3.16 µM, first compound 0.1 µM
# [11] = second compound 10 µM, first compound 0.0316 µM
# [12] = second compound 10 µM, first compound 0.1 µM
# [13] = second compound 0.0316 µM, first compound 0.316 µM
# [14] = second compound 0.0316 µM, first compound 1 µM
# [15] = second compound 0.0316 µM, first compound 3.16 µM
# [16] = second compound 0.0316 µM, first compound 10 µM
# [17] = second compound 0.1 µM, first compound 0.316 µM
# [18] = second compound 0.1 µM, first compound 1 µM
# [19] = second compound 0.1 µM, first compound 3.16 µM
# [20] = second compound 0.1 µM, first compound 10 µM
# [21] = second compound 0.316 µM, first compound 0.316 µM
# [22] = second compound 0.316 µM, first compound 1 µM
# [23] = second compound 0.316 µM, first compound 3.16 µM
# [24] = second compound 0.316 µM, first compound 10 µM
# [25] = second compound 1 µM, first compound 0.316 µM
# [26] = second compound 1 µM, first compound 1 µM
# [27] = second compound 1 µM, first compound 3.16 µM
# [28] = second compound 1 µM, first compound 10 µM
# [29] = second compound 3.16 µM, first compound 0.316 µM
# [30] = second compound 3.16 µM, first compound 1 µM
# [31] = second compound 3.16 µM, first compound 3.16 µM
# [32] = second compound 3.16 µM, first compound 10 µM
# [33] = second compound 10 µM, first compound 0.316 µM
# [34] = second compound 10 µM, first compound 1 µM
# [35] = second compound 10 µM, first compound 3.16 µM
# [36] = second compound 10 µM, first compound 10 µM
# 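Further: spheroids exposed to compounds for seven days before readout.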
# 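Wherever viability, T/C is given: 100% = DMSO vehicle control wells.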
smiles,measurement,setting,value
Cn1ncnc1[C@H]1c2n[nH]c(=O)c3cc(F)cc(c23)N[C@@H]1c1ccc(F)cc1 + CNC(=O)c1ccc(Nc2nc(OC3CCCC3)c3c(-c4ccc5nc(C)oc5c4)c[nH]c3n2)c(OC)c1,IC50,second compound 0.0316 µM,> 100 nM
same,IC50,second compound 0.1 µM,> 100 nM
same,IC50,second compound 0.316 µM,> 100 nM
same,IC50,second compound 1 µM,> 100 nM
same,IC50,second compound 3.16 µM,> 100 nM
same,IC50,second compound 10 µM,> 100 nM
same,"viability, T/C","second compound 0.0316 µM, first compound 0.000316 µM",111%
same,"viability, T/C","second compound 0.0316 µM, first compound 0.001 µM",118%
same,"viability, T/C","second compound 0.0316 µM, first compound 0.00316 µM",122%
same,"viability, T/C","second compound 0.0316 µM, first compound 0.01 µM",121%
same,"viability, T/C",[1],114%
same,"viability, T/C",[2],108%
same,"viability, T/C","second compound 0.1 µM, first compound 0.000316 µM",109%
same,"viability, T/C","second compound 0.1 µM, first compound 0.001 µM",122%
same,"viability, T/C","second compound 0.1 µM, first compound 0.00316 µM",120%
same,"viability, T/C","second compound 0.1 µM, first compound 0.01 µM",121%
same,"viability, T/C",[3],112%
same,"viability, T/C",[4],96.8%
same,"viability, T/C","second compound 0.316 µM, first compound 0.000316 µM",114%
same,"viability, T/C","second compound 0.316 µM, first compound 0.001 µM",119%
same,"viability, T/C","second compound 0.316 µM, first compound 0.00316 µM",92%
same,"viability, T/C","second compound 0.316 µM, first compound 0.01 µM",115%
same,"viability, T/C",[5],118%
same,"viability, T/C",[6],98.1%
same,"viability, T/C","second compound 1 µM, first compound 0.000316 µM",112%
same,"viability, T/C","second compound 1 µM, first compound 0.001 µM",109%
same,"viability, T/C","second compound 1 µM, first compound 0.00316 µM",107%
same,"viability, T/C","second compound 1 µM, first compound 0.01 µM",117%
same,"viability, T/C",[7],117%
same,"viability, T/C",[8],99.3%
same,"viability, T/C","second compound 3.16 µM, first compound 0.000316 µM",101%
same,"viability, T/C","second compound 3.16 µM, first compound 0.001 µM",99.2%
same,"viability, T/C","second compound 3.16 µM, first compound 0.00316 µM",99.7%
same,"viability, T/C","second compound 3.16 µM, first compound 0.01 µM",118%
same,"viability, T/C",[9],104%
same,"viability, T/C",[10],105%
same,"viability, T/C","second compound 10 µM, first compound 0.000316 µM",105%
same,"viability, T/C","second compound 10 µM, first compound 0.001 µM",115%
same,"viability, T/C","second compound 10 µM, first compound 0.00316 µM",99.5%
same,"viability, T/C","second compound 10 µM, first compound 0.01 µM",105%
same,"viability, T/C",[11],82.5%
same,"viability, T/C",[12],128%
Nc1ccn(C2OC(CO)C(O)C2(F)F)c(=O)n1 (stereo unspecified) + CNC(=O)c1ccc(Nc2nc(OC3CCCC3)c3c(-c4ccc5nc(C)oc5c4)c[nH]c3n2)c(OC)c1,IC50,second compound 0.0316 µM,< 31.6 nM
same,IC50,second compound 0.1 µM,< 31.6 nM
same,IC50,second compound 0.316 µM,54.3 nM
same,IC50,second compound 1 µM,53.7 nM
same,IC50,second compound 3.16 µM,48.9 nM
same,IC50,second compound 10 µM,44.9 nM
same,"viability, T/C",[1],50.8%
same,"viability, T/C",[2],36.9%
same,"viability, T/C",[13],27.4%
same,"viability, T/C",[14],34.7%
same,"viability, T/C",[15],39%
same,"viability, T/C",[16],34.4%
same,"viability, T/C",[3],57.3%
same,"viability, T/C",[4],33.6%
same,"viability, T/C",[17],26.9%
same,"viability, T/C",[18],36.3%
same,"viability, T/C",[19],36.4%
same,"viability, T/C",[20],34.7%
same,"viability, T/C",[5],63.4%
same,"viability, T/C",[6],34.5%
same,"viability, T/C",[21],32.2%
same,"viability, T/C",[22],29.6%
same,"viability, T/C",[23],39.5%
same,"viability, T/C",[24],37%
same,"viability, T/C",[7],65.3%
same,"viability, T/C",[8],32.6%
same,"viability, T/C",[25],23.9%
same,"viability, T/C",[26],29%
same,"viability, T/C",[27],36.4%
same,"viability, T/C",[28],28.7%
same,"viability, T/C",[9],63%
same,"viability, T/C",[10],24.2%
same,"viability, T/C",[29],26.2%
same,"viability, T/C",[30],24.3%
same,"viability, T/C",[31],34.3%
same,"viability, T/C",[32],33.6%
same,"viability, T/C",[11],60.2%
same,"viability, T/C",[12],26.9%
same,"viability, T/C",[33],21.4%
same,"viability, T/C",[34],22.6%
same,"viability, T/C",[35],26.5%
same,"viability, T/C",[36],31.5%
O=c1[nH]cc(F)c(=O)[nH]1 + CNC(=O)c1ccc(Nc2nc(OC3CCCC3)c3c(-c4ccc5nc(C)oc5c4)c[nH]c3n2)c(OC)c1,IC50,second compound 0.0316 µM,> 10000 nM
same,IC50,second compound 0.1 µM,> 10000 nM
same,IC50,second compound 0.316 µM,> 10000 nM
same,IC50,second compound 1 µM,> 10000 nM
same,IC50,second compound 3.16 µM,> 10000 nM
same,IC50,second compound 10 µM,> 10000 nM
same,"viability, T/C",[1],99.7%
same,"viability, T/C",[2],113%
same,"viability, T/C",[13],107%
same,"viability, T/C",[14],103%
same,"viability, T/C",[15],99.9%
same,"viability, T/C",[16],86.5%
same,"viability, T/C",[3],116%
same,"viability, T/C",[4],111%
same,"viability, T/C",[17],128%
same,"viability, T/C",[18],115%
same,"viability, T/C",[19],101%
same,"viability, T/C",[20],76.6%
same,"viability, T/C",[5],108%
same,"viability, T/C",[6],106%
same,"viability, T/C",[21],110%
same,"viability, T/C",[22],112%
same,"viability, T/C",[23],96.2%
same,"viability, T/C",[24],90%
same,"viability, T/C",[7],102%
same,"viability, T/C",[8],99.7%
same,"viability, T/C",[25],94.5%
same,"viability, T/C",[26],101%
same,"viability, T/C",[27],93.4%
same,"viability, T/C",[28],83.6%
same,"viability, T/C",[9],95%
same,"viability, T/C",[10],97%
same,"viability, T/C",[29],97.1%
same,"viability, T/C",[30],83.1%
same,"viability, T/C",[31],94.5%
same,"viability, T/C",[32],77.3%
same,"viability, T/C",[11],87.8%
same,"viability, T/C",[12],86.6%
same,"viability, T/C",[33],89.8%
same,"viability, T/C",[34],88.5%
same,"viability, T/C",[35],77.8%
same,"viability, T/C",[36],65.2%
